Four molecules from patent US20250197425A1, “2,6,9-TRISUBSTITUTED PURINES” (ASTRAZENECA AB, priority 2022, published 2025) can be followed below.

Each structure is given as a SMILES string. Converted amounts (≈) assume the structure as drawn. Some results are limits rather than exact numbers.

The subject of data set [1] is POLR2A Ser2 phosphorylation (CDK9). The experiment in a line: POLR2A Ser2 phosphorylation imaging assay in MCF-7 cells. It is filed as cell-based. The note with it: Homo sapiens, MCF7, 2 h, MCF-7 cells, 2 hours; read-out: POLR2A Ser2 phosphorylation IC50. In a few lines:
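MCF-7 cells were fixed, permeabilised and immunostained for POLR2A phospho-Ser2, then imaged by high-content microscopy. Levels were normalised to controls and IC50 values derived.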

Data set [2] is described as follows: CLint assessment in human liver microsomes (HLM). The note with it: 1 μM. Format: in vitro ADME. In a few lines: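 Microsomes preincubated 8 min with NADPH, then compound added and incubated 30 min at 37° C. Remaining compound measured by LC-MS/MS. t1/2 and CLint calculated, with CLint scaled to incubation volume per mg microsomal protein.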
In general terms: Microsomes from liver hold many membrane-bound enzymes, among them those of drug oxidation.

Data set [3] is described as follows: Aqueous thermodynamic solubility, shake-flask. It is filed as physicochemical. The following applies: aqueous phosphate buffer, 25 °C, pH 7.4, aqueous buffer, thermodynamic from solid, phosphate buffer 0.1 M, pH 7.4, 24 hours. In a few lines: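 Dried compound (after DMSO evaporation) was equilibrated in 0.1 M phosphate buffer pH 7.4 with stirring for 24 h at 25° C. Undissolved material was removed by double centrifugation, and the supernatant was diluted in water and quantified by UPLC/MS/MS.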

For data set [4], the target named is 379 non-CDK kinase (or non-CDK kinase-complex) targets. As to the kind of experiment: Kinase profiling (SelectScreen, ThermoFisher). It is filed as biochemical. The following applies: compared with Compound 6. The text has this: Test compounds were profiled against a broad panel of kinases at ThermoFisher Scientific using the SelectScreen Kinase Profiling Services. Each kinase assay used one of the following assay technology protocols: • 1) Z-LYTE™ Screening Protocol and Assay Conditions (Revised 23 Jan. 2018 version) available at http://assets.thermofisher.com/TFS-Assets/BID/Methods-&-Protocols/20180123_SSBK_Customer_Protocol_and_Assay_Conditions.pdf; • 2) Adapta™ Screening Protocol and Assay Conditions (Revised 23 Jan. 2018 version) available at http://assets.thermofisher.com/TFS-Assets/BID/Methods-&-Protocols/20180123_SSBK_Adapta_Customer_Protocol_and_Assay_Conditions.pdf; or • 3) LanthaScreen™ Eu Kinase Binding Assay Screening Protocol and Assay Conditions (Revised 23 Jan. 2018 version) available at http://assets.thermofisher.com/TFS-Assets/BID/Methods-&-Protocols/20180123_SSBK_LanthaScreen_Binding_Customer_Protocol_and_Assay_Co nditions.pdf.

The subject of data set [5] is 97 targets (GPCRs, ion channels, transporters, enzymes, kinases). As to the kind of experiment: Secondary pharmacology panel (Eurofins CEREP). The following applies: compared with Compound 6.
Protocol: Secondary pharmacology assays were performed at Eurofins CEREP using standard experimental techniques. Specifically, radioligand binding assays were used to assess the ability of test compounds to interact with G-protein coupled receptors (GPCRs), ion channels, and transmembrane transporters. Assays measuring substrate turnover or phosphorylation by isolated proteins were used for enzyme and kinase targets, allowing direct determination of the mode of action of the tested compounds.

For orientation: IC50 means the point on the concentration scale where inhibition reaches its midpoint. The solubility is the concentration that dissolves in the medium under given conditions. High values mean a readily soluble substance, low ones a poorly soluble substance. On to `CCn1cnc2c(N[C@H]3CCN(S(=O)(=O)NC)C3)nc(-c3cccc4c3CC[C@]4(C)O)nc21` (relative stereo) [Example 3, (S)-3-((9-ethyl-2-((R*)-1-hydroxy-1-methyl-2,3-dihydro-1H-inden-4-yl)-9H-purin-6-yl)amino)-N-methylpyrrolidine-1-sulfonamide], for which the IC50 in data set [1] is 6.5 µM. Besides, in data set [2], the “HLM CLint” value came to 45.2 µL/min/mg. This molecule came in with a solubility at 24 h in data set [3] of 48 µM (≈ 22.6 µg/mL). The kinase inhibition profile entry in data set [4] is reported as “broadly similar kinase inhibition profiles to Compound 6”. The secondary pharmacology profile entry in data set [5] is “broadly similar secondary pharmacology to Compound 6”.

Take `CCn1cnc2c(N[C@@H]3CN(S(=O)(=O)c4ncc[nH]4)C[C@H]3F)nc(N[C@@H](CO)C3CC3)nc21` (relative stereo) [Example 17, (R)-2-((6-(((3R*,4R*)-1-((1H-imidazol-2-yl)sulfonyl)-4-fluoropyrrolidin-3-yl)amino)-9-ethyl-9H-purin-2-yl)amino)-2-cyclopropylethan-1-ol]: in data set [1], the concentration for half-maximal inhibition (IC50) was found to be 3.9 µM. Moreover, the “HLM CLint” value in data set [2] was determined as 46 µL/min/mg. The same molecule registered a solubility at 24 h in data set [3] of 280 µM (≈ 134 µg/mL).

As to `CCNS(=O)(=O)N1CC[C@H](Nc2nc(N[C@@H](CO)C3CC3)nc3c2ncn3C)C1` [Example 19, (S)-3-((2-(((R)-1-cyclopropyl-2-hydroxyethyl)amino)-9-methyl-9H-purin-6-yl)amino)-N-ethylpyrrolidine-1-sulfonamide], the IC50 in data set [1] was 17.6 µM. The kinase inhibition profile entry in data set [4] is “broadly similar kinase inhibition profiles to Compound 6”.

As for `CCNS(=O)(=O)N1CC[C@H](Nc2nc(N[C@@H](CC)[C@@H](C)O)nc3c2ncn3C)C1` [Example 53, (S)—N-ethyl-3-((2-(((2R,3S)-2-hydroxypentan-3-yl)amino)-9-methyl-9H-purin-6-yl)amino)pyrrolidine-1-sulfonamide], the IC50 in data set [1] is more than 30 µM. Further, the kinase inhibition profile result in data set [4] was “broadly similar kinase inhibition profiles to Compound 6”.
